According to patent US20170246267A1, “CHOLINERGIC ANTAGONISM AS AN ADJUNCT TO CANCER THERAPY” (The Trustees of Columbia University in the City of New York, priority 2014, published 2017):
Entries after “also recorded” stand apart in the source; their conditions may differ. Starred links: 1 amine or outer side, 2 acyl side, 3 side chain; linkers in the order of their positions; H or OH if unused. Positions of bridges follow the written chain, without caps; N, C: chain ends. Non-standard residues stand in square brackets, D forms with d. Residues, ends and D or L forms follow the SMILES beside them. X1 = CC(=O)NC(C(=O)OC(C(C)C)C(N[*:1])C(=O)[*:2])C(O)C(C)C; PhLac = O=C(O)[CH](O)Cc1ccccc1; NMeT = CN[CH](C(=O)O)[CH](C)O; NMeA = CN[CH](C)C(=O)O; NMeDha = C=C(NC)C(=O)O

Columns and labels:
[1] = tested on: INS-GAS mice; details: mouse, in vivo
[2] = tested on: TMK1 gastric cancer cell line; assay: YAP immunoblotting in TMK1 gastric cancer cell line; type: cell-based, human; parameters: changes of YAP phosphorylation after carbachol stimulation: dose or concentration left out as unconfirmed
Protocol: (§1) Similarly, carbachol treatment in Apc-deleted gastric organoids reduced the level of phosphorylated YAP (FIG. 51G). […] Next a human M3R gene-expressing construct was transfected into the M3R-negative AGS cell line. Overexpression of M3R decreased the level of phosphorylated YAP in a Gq-dependent manner, and activated the transcriptional activity of YAP in a luciferase assay (Dupont et al., 2011) (FIGS. 45B, 45C, and 52A).
(§2) Protein lysates were prepared from cells, separated by sodium dodecyl sulfate-polyacrylamide gel electrophoresis (SDS-PAGE), transferred to polyvinylidene difluoride membranes (Millipore). The membrane was probed with primary antibodies (phospho-YAP (Cell Signaling, 1:1000), YAP (Cell Signaling, 1:1000, and β-actin (Sigma, 1:5000) antibodies), and then incubated with the secondary antibody. Immunocomplexes were detected using the enhanced chemiluminescence system (Amersham Biosciences).
(§3) The human cancer cell lines were cultured in RPMI, DMEM, or Ham's F-12 medium supplemented with 10% fetal bovine serum, as described previously (Hayakawa et al., 2011).

[3] = tested on: Dclk1-CreERT; R26-DTA mice; details: mouse, in vivo
[4] = tested on: DSS-colitis; assay: Bethanechol in drinking water in DSS-colitis; type: in vivo, mouse
[5] = Bethanechol and response to 15 Gy abdominal irradiation (AIR); type: in vivo, mouse
[6] = tested on: Apc-deleted gastric organoids; assay: YAP immunoblotting in Apc-deleted gastric organoids treated with carbachol; type: cell-based, mouse; details: 1 mM carbachol for 7 days
From the text: as §1
(§4) The harvested mouse stomachs were opened longitudinally and washed with cold PBS. The tissue was chopped into approximately 5 mm pieces, washed with cold PBS, and incubated in 8 mM EDTA in PBS for 60 minutes on ice. The tissue fragments were suspended vigorously in cold 10% FBS using a 10-mL pipette, yielding supernatants enriched in crypts. […]
as §2

[7] = tested on: human cancer cells; assay: NGF expression in human cancer cells treated with carbachol; type: cell-based; details: TMK-1 cells, 10 mM carbachol for 24 hours
From the text: as §1
(§5) Total RNA was extracted from whole stomach samples from each animal using TRIzol reagent (Invitrogen) or the RNAqueous-micro kit (Ambion) and subjected to first-strand complementary DNA synthesis using the Superscript III cDNA Amplification System (Invitrogen) following the manufacturer's instructions. qRT-PCR was performed using a three-step method, an ABI 7300 system and SYBR green (Roche). The qRT-PCR primer sequences are available upon request. The results were expressed as the copy number of each gene relative to that of Gapdh or GAPDH.
as §3

[8] = tested on: gastric organoids; assay: Ngf expression in cultured gastric organoids treated with carbachol; type: cell-based, mouse
From the text: In mouse gastric tumors, there was also a specific upregulation of Ngf (almost 20 times higher expression than the normal stomach), and such upregulation was not observed in any other neurotrophins (FIG. 40B). Similar upregulation of Ngf was found in mouse colorectal tumors induced by azoxymethane (AOM) and dextran sodium sulfate (DSS) (FIG. 47B). […] Immunostaining and in situ hybridization confirmed that NGF was expressed within the neoplastic epithelium rather than the stromal compartment (FIGS. 40D and 47C), a finding confirmed by cell sorting and subsequent qPCR (FIGS. 40E and 40F). MNU tumor-derived organoids that are cultured in isolation, separated from their native microenvironment, lost Ngf expression within 7 days. […] Therefore, ACh production, possibly from tuft cells initially but later from innervated nerves with axonogenesis, is at least partly responsible for the neoplastic upregulation of NGF.
as §4, with “crypts. Gland fractions were centrifuged at 900 rpm for 6 minutes at 4° C. and diluted with advanced DMEM/F12 (Invitrogen) containing B27, N2, 1 μM n-Acetylcysteine, 10 mM HEPES, penicillin/streptomycin, and Glutamax (all from Invitrogen).” for “crypts.”
as §5, with “The qRT-PCR primer sequences are available upon request.” left out

[9] = tested on: INS-GAS mice; details: mouse, in vivo; remark: listed apart in the source
[10] = tested on: small cell lung cancer xenografts; details: reference 50; cited from earlier work
[11] = tested on: gastric organoids; assay: In vitro gastric organoid culture with or without neuron co-culture: organoid growth; type: cell-based, mouse
[12] = tested on: gastric organoids; assay: Stem cell marker / Wnt target gene expression in gastric organoids (qRT-PCR); type: cell-based, mouse
[13] = after knockout of tuft cells, bethanechol in the drinking water

O=c1[nH]cc(F)c(=O)[nH]1 [5-FU, 5-Fluorouracil]
tumor size [1]: no effect

C=C1C(=O)NC(C)C(=O)N(C)C(C)C(=O)NC(C(OC(=O)C(NC(C)=O)C(O)C(C)C)C(C)C)C(=O)N(C)C(C(C)OC)C(=O)OC(C)C(NC(C)=O)C(=O)OC(Cc2ccccc2)C(=O)N1C (centres unmarked) [YM254890] (Ac-T[PhLac][NMeDha]A[NMeA][X1][NMeT](Me); ester 1-C; configuration not given here)
changes of YAP phosphorylation after carbachol stimulation ([2]; pretreated with YM254890): blocked

CC(C[N+](C)(C)C)OC(N)=O (centres unmarked) [bethanechol]
loss of proliferation in the stomach by Dclk1+ cell ablation [3]: rescue this effect at least in part; also recorded: significantly rescued
mucosal / intestinal regeneration ([4]; after ablation of Dclk1+ (tuft) cells, bethanechol in the drinking water): restored; also recorded: improve
proliferation [4, 13]: improved
ulcer length [4, 13]: reduction
DSS colitis ([4]; bethanechol-treated): Significant improvement
proliferation (Ki67) ([4]; mouse, in vivo): increased
survival ([5]; 15 Gy abdominal irradiation, bethanechol as a single agent immediately before or after the radiation): no significant overall impact
appearance of the colon after radiation ([5]; both pre- and post-radiation treated mice): almost normal appearing
improvement of histopathologic score for the colon compared to the controls ([5]; day +4 after radiation, both pre- and post-radiation treated mice): > 65%

C[N+](C)(C)CCOC(N)=O [carbachol]
level of phosphorylated YAP [6]: reduced
NGF expression [7]: significantly upregulated
Ngf expression ([8]; MNU tumor-derived organoids cultured in isolation, day 7): upregulated; also recorded: partly reestablished
Ngf expression ([8]; gastric organoids from WT mice, carbachol for 7 days): upregulated
NGF expression ([8]; organoids from M3 Receptor Knockout (M3RKO) mice): no change
level of phosphorylated YAP ([2]; 1 mM carbachol): reduced
levels of total YAP ([2]; 1 mM carbachol): no significant changes

NC(=O)C(c1ccccc1)(c1ccccc1)[C@@H]1CCN(CCc2ccc3c(c2)CCO3)C1 [darifenacin]
cellular proliferation of the tumors [9]: reduced
growth of small cell lung cancer xenografts [10]: inhibit

O=C1[O][Pt]2([NH][C@@H]3CCCC[C@H]3[NH]2)[O]C1=O [oxaliplatin]
tumor size [1]: no effect

CC[C@@H]1C(=O)OC[C@@H]1Cc1cncn1C [pilocarpine]
organoid growth ([11]; relative number of organoids at day 10, 100 μM pilocarpine): stimulated
expression of Lgr5, Cd44, and Sox9 ([12]; gastric organoids of M3KO mice): no effects
expression of gastric stem cell markers and Wnt target genes Lgr5, Cd44, and Sox9 ([12]; organoids from WT mice, 10 or 100 μM, day 7, dose-dependent): up-regulation

CN1[C@@H]2C[C@@H](OC(=O)[C@H](CO)c3ccccc3)C[C@H]1[C@@H]1O[C@@H]12 [scopolamine]
stimulatory effect of neuron co-culture on gastric organoid growth [11]: inhibited

NGF: nerve growth factor, used to treat TMK-1 cells
YAP activation ([2]; TMK-1 cells treated with NGF): did not cause
